# Legend:
# Assay type in all cases: cell-based
# [1] = biological target: T1, BRAF V600E (Homo sapiens, UniProt P15056, V600E); test: BRAF HiBiT degradation assay, C-terminal HiBiT-tagged BRAF V600E A375 cells (clone 1F10), Nano-Glo HiBiT Lytic assay; conditions: for Dmax: A-375
# T1 construct: endogenous C-terminal HiBiT fusion tag on BRAF V600E allele; endogenous in cells; host or cells: A375 clone 1F10 (CRISPR-Cas9 knock-in of the HiBiT tag; parental A375 from ATCC)
# Method in brief: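 Degradation is measured as loss of HiBiT signal from BRAF V600E tagged at its native locus in A375 cells. Doses span 1 μM to 0.01 nM in half-log steps, in duplicate. Percent remaining is calculated against DMSO controls after subtracting untagged A375 background, and curve fitting yields DC50 and observed Dmax.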
# [2] = biological target: T2, BRAF G469A (Homo sapiens, UniProt P15056, G469A); test: BRAF HiBiT degradation assay, C-terminal HiBiT-tagged BRAF G469A overexpressed in HCT-116 BRAF−/− cells (clone 34), Nano-Glo HiBiT Lytic assay
# T2 construct: Horizon Discovery (HCT-116 BRAF−/− cells); host or cells: HCT-116 BRAF−/− cells, clone 34, lentiviral transduction
# Method in brief: (§1)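 First, the stable HiBiT-tagged cells were plated and incubated for 24 h. Next, compound was added in duplicate as an 11-point series with a 1 μM top concentration. Lytic detection followed, with DMSO-treated parental cells used for background. Finally, DC50 and Obs. Dmax relative to DMSO were derived from the % protein remaining curves.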
# [3] = biological target: T3, BRAF G466V (Homo sapiens, UniProt P15056, G466V); test: BRAF HiBiT degradation assay, C-terminal HiBiT-tagged BRAF G466V overexpressed in HCT-116 BRAF−/− cells (clone 8), Nano-Glo HiBiT Lytic assay
# T3 construct: Horizon Discovery (HCT-116 BRAF−/− cells); host or cells: HCT-116 BRAF−/− cells, clone 8, lentiviral transduction
# Method in brief: as §1
# [4] = biological target: T4, BRAF D594G (Homo sapiens, UniProt P15056, D594G); test: BRAF HiBiT degradation assay, C-terminal HiBiT-tagged BRAF D594G overexpressed in HCT-116 BRAF−/− cells (clone 63), Nano-Glo HiBiT Lytic assay
# T4 construct: Horizon Discovery (HCT-116 BRAF−/− cells); host or cells: HCT-116 BRAF−/− cells, clone 63, lentiviral transduction
# Method in brief: as §1
# [5] = A375 (BRAF V600E), DC50 at 50%: fitted conc. at Y=50
# [6] = A375 (BRAF V600E), percentage protein degraded at maximal compound effect relative to DMSO
# [7] = Class 2, BRAF G469A, DC50 at 50%: fitted conc. at Y=50
# [8] = HCT-116, Class 2, BRAF G469A, percentage protein degraded at maximal compound effect relative to DMSO
# [9] = BRAF G466V, DC50 at 50%: fitted conc. at Y=50
# [10] = HCT-116, BRAF G466V, percentage protein degraded at maximal compound effect relative to DMSO
# [11] = BRAF D594G, DC50 at 50%: fitted conc. at Y=50
# [12] = HCT-116, BRAF D594G, percentage protein degraded at maximal compound effect relative to DMSO
# [13] = A375 (BRAF V600E, Class 1), DC50 at 50% degradation
# [14] = A375 (BRAF V600E, Class 1), observed Dmax, % protein degraded relative to DMSO control
# [15] = BRAF G469A (Class 2), HCT-116 BRAF−/− cells, DC50 at 50% degradation
# [16] = BRAF G469A (Class 2), HCT-116 BRAF−/− cells, observed Dmax relative to DMSO control
# [17] = BRAF G466V (Class 3), HCT-116 BRAF−/− cells, DC50 at 50% degradation
# [18] = BRAF G466V (Class 3), HCT-116 BRAF−/− cells, observed Dmax relative to DMSO control
# [19] = BRAF D594G (Class 3), HCT-116 BRAF−/− cells, DC50 at 50% degradation
# [20] = BRAF D594G (Class 3), HCT-116 BRAF−/− cells, observed Dmax relative to DMSO control
# T4 sequence (P15056 whole entry D594G): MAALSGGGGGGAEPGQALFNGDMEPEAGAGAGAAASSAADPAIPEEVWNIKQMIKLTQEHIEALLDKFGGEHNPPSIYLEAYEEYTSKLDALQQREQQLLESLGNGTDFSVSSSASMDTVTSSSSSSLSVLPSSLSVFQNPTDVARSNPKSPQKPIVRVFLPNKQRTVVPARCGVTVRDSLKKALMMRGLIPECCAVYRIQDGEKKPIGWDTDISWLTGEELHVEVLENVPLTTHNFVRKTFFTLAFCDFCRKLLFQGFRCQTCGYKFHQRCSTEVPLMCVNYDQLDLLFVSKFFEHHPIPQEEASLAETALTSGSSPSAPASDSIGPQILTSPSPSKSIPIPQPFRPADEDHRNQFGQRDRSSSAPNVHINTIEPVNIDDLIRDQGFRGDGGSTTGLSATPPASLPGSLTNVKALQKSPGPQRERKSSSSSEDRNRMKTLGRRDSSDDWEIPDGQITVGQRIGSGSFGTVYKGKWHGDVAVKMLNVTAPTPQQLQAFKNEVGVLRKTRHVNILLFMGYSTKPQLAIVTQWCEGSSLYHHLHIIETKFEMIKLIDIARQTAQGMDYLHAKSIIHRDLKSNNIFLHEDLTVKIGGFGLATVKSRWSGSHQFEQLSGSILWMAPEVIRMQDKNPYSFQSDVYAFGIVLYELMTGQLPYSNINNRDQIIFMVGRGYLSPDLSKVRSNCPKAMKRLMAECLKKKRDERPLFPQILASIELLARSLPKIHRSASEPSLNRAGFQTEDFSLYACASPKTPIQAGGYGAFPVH
# T1 sequence (P15056 whole entry V600E, the tested form may be a part): as the sequence (P15056 whole entry D594G) above, with G594D, V600E counted along it
# T2 sequence (P15056 whole entry G469A): as the sequence (P15056 whole entry D594G) above, with G469A, G594D counted along it
# T3 sequence (P15056 whole entry G466V): as the sequence (P15056 whole entry D594G) above, with G466V, G594D counted along it
SMILES,"DC50 [1, 5]","Dmax [1, 6]","DC50 [2, 7]","Dmax [2, 8]","DC50 [3, 9]","Dmax [3, 10]","DC50 [4, 11]","Dmax [4, 12]","DC50 [1, 13]","Dmax [1, 14]","DC50 [2, 15]","Dmax [2, 16]","DC50 [3, 17]","Dmax [3, 18]","DC50 [4, 19]","Dmax [4, 20]"
"CCCS(=O)(=O)Nc1cccc(-c2nc(C3(C)CCN(C(=O)C4CCN(CC5CCN(c6ccc(C7CCC(=O)NC7=O)cc6)CC5)CC4)CC3)sc2-c2ccnc(N)n2)c1F (racemic) [Compound 227, Rac-N-{3-[5-(2-aminopyrimidin-4-yl)-2-(1-{1-[(1-{4-[(3R)-2,6-dioxopiperidin-3-yl]phenyl}piperidin-4-yl)methyl]piperidine-4-carbonyl}-4-methylpiperidin-4-yl)-1,3-thiazol-4-yl]-2-fluorophenyl}propane-1-sulfonamide]",< 10 nM,> 70%,> 500 nM,30 to 70%,> 500 nM,30 to 70%,> 500 nM,30 to 70%,,,,,,,,
"CCCS(=O)(=O)Nc1cccc(-c2nc(C3CCC4(CC3)CN(C(=O)CCCCCc3ccc5c(c3)C(=O)N(C3CCC(=O)NC3=O)C5)C4)sc2-c2ccnc(N)n2)c1F (racemic) [Compound 234, Rac-N-{3-[5-(2-aminopyrimidin-4-yl)-2-[2-(6-{2-[(3R)-2,6-dioxopiperidin-3-yl]-3-oxo-2,3-dihydro-1H-isoindol-5-yl}hexanoyl)-2-azaspiro[3.5]nonan-7-yl]-1,3-thiazol-4-yl]-2-fluorophenyl}propane-1-sulfonamide]",< 10 nM,> 70%,> 500 nM,< 30%,10 to 50 nM,30 to 70%,< 10 nM,30 to 70%,,,,,,,,
"CCCS(=O)(=O)Nc1cccc(-c2nc(C(C)(C)C3CCN(C(=O)C4CN(C5CCN(c6ccc7c(c6)C(=O)N(C6CCC(=O)NC6=O)C7=O)CC5)C4)CC3)sc2-c2ccnc(N)n2)c1F (racemic) [Compound 243, Rac-N-{3-[5-(2-aminopyrimidin-4-yl)-2-(2-{1-[1-(1-{2-[(3R)-2,6-dioxopiperidin-3-yl]-1,3-dioxo-2,3-dihydro-1H-isoindol-5-yl}piperidin-4-yl)azetidine-3-carbonyl]piperidin-4-yl}propan-2-yl)-1,3-thiazol-4-yl]-2-fluorophenyl}propane-1-sulfonamide]",50 to 500 nM,30 to 70%,> 500 nM,< 30%,> 500 nM,< 30%,> 500 nM,30 to 70%,,,,,,,,
"CCCS(=O)(=O)Nc1cccc(-c2nc(C3CCC4(CC3)CCN(C(=O)C3CCN(c5ccc6c(c5)C(=O)N(C5CCC(=O)NC5=O)C6=O)CC3)CC4)sc2-c2ccnc(N)n2)c1F (racemic) [Compound 245, Rac-N-{3-[5-(2-aminopyrimidin-4-yl)-2-[3-(1-{2-[(3R)-2,6-dioxopiperidin-3-yl]-1,3-dioxo-2,3-dihydro-1H-isoindol-5-yl}piperidine-4-carbonyl)-3-azaspiro[5.5]undecan-9-yl]-1,3-thiazol-4-yl]-2-fluorophenyl}propane-1-sulfonamide]",< 10 nM,> 70%,> 500 nM,30 to 70%,> 500 nM,30 to 70%,< 10 nM,30 to 70%,,,,,,,,
"CCCS(=O)(=O)Nc1cccc(-c2nc(C3CCC4(CC3)CCN(C(=O)C3CCN(c5ccc(C6CCC(=O)NC6=O)cn5)CC3)CC4)sc2-c2ccnc(N)n2)c1F (racemic) [Compound 246, Rac-N-{3-[5-(2-aminopyrimidin-4-yl)-2-[3-(1-{5-[(3R)-2,6-dioxopiperidin-3-yl]pyridin-2-yl}piperidine-4-carbonyl)-3-azaspiro[5.5]undecan-9-yl]-1,3-thiazol-4-yl]-2-fluorophenyl}propane-1-sulfonamide]",,,,,,,,,10 to 50 nM,> 70%,> 500 nM,< 30%,> 500 nM,< 30%,> 500 nM,30 to 70%

# Results, then the compound that gave them:
"DC50 [1, 5]","Dmax [1, 6]","DC50 [2, 7]","Dmax [2, 8]","DC50 [3, 9]","Dmax [3, 10]","DC50 [4, 11]","Dmax [4, 12]","DC50 [1, 13]","Dmax [1, 14]","DC50 [2, 15]","Dmax [2, 16]","DC50 [3, 17]","Dmax [3, 18]","DC50 [4, 19]","Dmax [4, 20]",SMILES
< 10 nM,> 70%,> 500 nM,30 to 70%,> 500 nM,30 to 70%,> 500 nM,30 to 70%,,,,,,,,,"CCCS(=O)(=O)Nc1cccc(-c2nc(C3CCC4(CC3)CCN(C(=O)CCCCCc3ccc5c(c3)C(=O)N(C3CCC(=O)NC3=O)C5)CC4)sc2-c2ccnc(N)n2)c1F (racemic) [Compound 235, Rac-N-{3-[5-(2-aminopyrimidin-4-yl)-2-[3-(6-{2-[(3R)-2,6-dioxopiperidin-3-yl]-3-oxo-2,3-dihydro-1H-isoindol-5-yl}hexanoyl)-3-azaspiro[5.5]undecan-9-yl]-1,3-thiazol-4-yl]-2-fluorophenyl}propane-1-sulfonamide]"
< 10 nM,> 70%,> 500 nM,30 to 70%,10 to 50 nM,30 to 70%,< 10 nM,30 to 70%,,,,,,,,,"CCCS(=O)(=O)Nc1cccc(-c2nc(C3(C)CCN(C(=O)CN4CCC5(CC4)CN(c4ccc6c(c4)C(=O)N(C4CCC(=O)NC4=O)C6=O)C5)CC3)sc2-c2ccnc(N)n2)c1F (racemic) [Compound 238, Rac-N-{3-[5-(2-aminopyrimidin-4-yl)-2-{1-[2-(2-{2-[(3R)-2,6-dioxopiperidin-3-yl]-1,3-dioxo-2,3-dihydro-1H-isoindol-5-yl}-2,7-diazaspiro[3.5]nonan-7-yl)acetyl]-4-methylpiperidin-4-yl}-1,3-thiazol-4-yl]-2-fluorophenyl}propane-1-sulfonamide]"
< 10 nM,> 70%,> 500 nM,< 30%,10 to 50 nM,30 to 70%,< 10 nM,30 to 70%,,,,,,,,,"CCCS(=O)(=O)Nc1cccc(-c2nc(C3CCC4(CC3)CN(C(=O)C3CCN(c5ccc6c(c5)C(=O)N(C5CCC(=O)NC5=O)C6=O)CC3)C4)sc2-c2ccnc(N)n2)c1F (racemic) [Compound 244, Rac-N-{3-[5-(2-aminopyrimidin-4-yl)-2-[2-(1-{2-[(3R)-2,6-dioxopiperidin-3-yl]-1,3-dioxo-2,3-dihydro-1H-isoindol-5-yl}piperidine-4-carbonyl)-2-azaspiro[3.5]nonan-7-yl]-1,3-thiazol-4-yl]-2-fluorophenyl}propane-1-sulfonamide]"
,,,,,,,,10 to 50 nM,> 70%,> 500 nM,< 30%,> 500 nM,30 to 70%,> 500 nM,30 to 70%,"CCCS(=O)(=O)Nc1cccc(-c2nc(C3CCC4(CC3)CN(C(=O)CC3CCN(C5CCN(c6ccc7c(c6)C(=O)N(C6CCC(=O)NC6=O)C7=O)CC5)CC3)C4)sc2-c2ccnc(N)n2)c1F (racemic) [Compound 247, Rac-N-{3-[5-(2-aminopyrimidin-4-yl)-2-{2-[2-(1′-{2-[(3R)-2,6-dioxopiperidin-3-yl]-1,3-dioxo-2,3-dihydro-1H-isoindol-5-yl}-[1,4′-bipiperidin]-4-yl)acetyl]-2-azaspiro[3.5]nonan-7-yl}-1,3-thiazol-4-yl]-2-fluorophenyl}propane-1-sulfonamide]"
,,,,,,,,50 to 500 nM,> 70%,> 500 nM,< 30%,> 500 nM,30 to 70%,> 500 nM,30 to 70%,"CCCS(=O)(=O)Nc1cccc(-c2nc(C3CCN(C(=O)CC4CCN(C5CCN(c6ccc7c(c6)C(=O)N(C6CCC(=O)NC6=O)C7=O)CC5)CC4)CC3)sc2-c2ccnc(N)n2)c1F (racemic) [Compound 250, Rac-N-{3-[5-(2-aminopyrimidin-4-yl)-2-{1-[2-(1′-{2-[(3R)-2,6-dioxopiperidin-3-yl]-1,3-dioxo-2,3-dihydro-1H-isoindol-5-yl}-[1,4′-bipiperidin]-4-yl)acetyl]piperidin-4-yl}-1,3-thiazol-4-yl]-2-fluorophenyl}propane-1-sulfonamide]"

# — patent publication US20260317324A1, “BIFUNCTIONAL COMPOUNDS FOR DEGRADING BRAF VIA UBIQUITIN PROTEOSOME PATHWAY” (Nurix Therapeutics, Inc., priority 2023, published 2026)
